Here are results for two substances from patent publication US20210330861A1, “ANTIMICROBIAL COATING COMPOSITIONS” (BIOCANT - CENTRO DE INOVAÇÃO EM BIOTECNOLOGIA, priority 2012, published 2021).

The test system of one data set is HUVEC. Briefly: Soluble CM peptide interaction with cells, MTT assay. It counts as cell-based, human. Conditions: 24 h contact with soluble peptide. Here is the method: Two human cell types such as human endothelial umbilical vein cells (HUVEC) as a model for vascularized tissues and normal dermal human fibroblasts (NDHF) one of the most common cell type present in human connective tissue were used to evaluate the cytotoxicity induced by CM peptide immobilized surfaces. HUVECs (preferably, Lonza, Cat. Number CC-2517, Walkersville, Md., USA) were cultured using endothelial growth factor-2 media (EGM-2), bullet kit media (preferably, Lonza, Cat. Number CC-3156) for at least 24 h prior to further use. Passages below six were used for all experiments.
HUVEC and NDHF cells were cultured as previously mentioned and platted at a density of 4.2×10^3 cells/cm2 in 24-well plates. Cells were allowed to grow 24 h prior to any experiments performed. Different concentrations of CM peptide solutions (50, 30, 20, 10, 5, 2.5 and 1 μg/mL) were incubated with both cells for 24 hr to evaluate the cytotoxicity effect of CM peptides using MTT cell metabolic activity assay.
Initially cells were washed with warm phosphate buffer saline (PBS). […] Absorbance was measured at 540 nm with reference to 670 nm in a UV-visible spectrophotometer (SynergyMx from Biotek Instruments, Winooski, Vt., United States) (I don't understand by reference).

A further data set concerns S. aureus. Briefly: Antimicrobial activity testing of peptide capped gold nanoparticles and peptide in bacterial suspension (colony count). It counts as cell-based. Conditions: 10 μg/mL, after 4 hr of incubation, 10% human serum. Here is the method: (§1) S. aureus and E. coli were grown at 37° C. and maintained on LB plates (preferably, Luria-Bertani broth with 1.5% agar). Bacteria were also grown in LB media for overnight at 37° C. and cell counts were quantified by OD 600 measurements. Different amounts of peptide capped gold nanoparticles, peptide (5-10 μg/mL) and HEPES reduced gold nanoparticles (10 μg/mL) were added into bacterial suspensions ([…]) in presence of 10% human serum and incubated for 4 h at 37° C. 100 μL aliquots were taken out from the respective suspensions at 2 h intervals and diluted in PBS buffer to give […] and plated on LB agar plates followed by incubation at 37° C. Colonies were counted after 24 h of incubation. In another experiments, citric acid reduced gold nanoparticles were functionalized with 1 mg/mL mPEG-thiol (5 kDa). Gold nanoparticles were synthesized using citric acid as described previously (11). PEG and CMC peptide coated gold nanoparticles were incubated with 10% human serum for 2 hr at 4° C. followed by centrifugation at 14000 rpm to discard free human serum. Similarly, to study protease degradation, CMC coated gold nanoparticles and bare CMC peptides were treated with 1 mg/mL trypsin (phosphate buffer pH 8) for 2 h at 37° C. After 2 h of reaction, the nanoparticle solution was subjected to centrifugation to remove trypsin. Antimicrobial test was performed with human serum and trypsin treated peptide capped gold nanoparticles against E. coli.

The next data set concerns E. coli. The data set is described as above. It counts as cell-based. Here is the method:
as §1

The nature of data set [1]: Zeta potential of gold nanoparticles. It counts as physicochemical. To be noted: after centrifugation and redispersion in HEPES, room temperature. As to the method:
The synthesized gold nanoparticle solutions were centrifuged at 14000 rpm followed by washing with mill-Q water to remove unreacted peptides and HEPES. The centrifuged gold nanoparticles were frozen and fridge dried at 223 K using . . . Thermogravimetric analysis (TGA) of peptide capped gold nanoparticles and gold nanoparticles synthesized without peptides was performed using over a temperature range of 30-600° C. at a heating rate of 10° C./min in presence of N2 gas. The binding of peptide on gold nanoparticle surface was analyzed, preferably by FTIR spectroscopy in ATR mode using JASCO spectrophotometer at 4 cm-1 resolutions with 64 scans. Zeta (ζ) potential of the synthesized gold nanoparticles after centrifugation and redispersion in HEPES were measured, preferably, using Brukerheaven instrument at room temperature.

Ends that are not written are not given here.

On to Cecropin-mellitin [soluble CM peptide], for which the “concentration at which negative influence on metabolic activity was also detected (MTT)” value in the data set with HUVEC was 1 µg/mL.

With “KWKLFKKIGAVLKVLC [CMC peptide, KWKLFKKIGAVLKVLC]”, the killing of bacteria result in the data set with S. aureus is listed as “reduced activity”; with E. coli (10 μg/mL, after 4 hr of incubation, 10% human serum) it was “reduced activity”. For the same substance, the “incubation time to kill bacteria” value with E. coli (absence of human serum (FIG. 9)) is 60 min. The “antimicrobial activity after trypsin treatment” value in the data set with E. coli (treated with 1 mg/mL trypsin for 2 h at 37° C.) was “did not show any antimicrobial activity”. In addition, in data set [1], the “ζ potential (mV)” value was “+23±1 mV”.
